Columns and labels:
[1] = tested on: SU.86.86 human pancreatic cancer cells; assay: SU.86.86 pancreatic tumour growth in CD-1 nude mice (3.6); assay type: in vivo, human cells in mice
Experimental: Treatments lasted for 14 days thereafter. Antitumour activities were estimated by the inhibition of tumour volume, which was measured with a caliper on four different occasions over the treatment period. Each point represents mean tumour volume calculated from 5 animals per experimental group. […] Control animals (control) received saline alone for the same period. At the end of the treatments, the animals were sacrificed, tumours were excised and their weights were measured. Each bar represents mean tumour weight calculated from 6 animals per experimental group. […] Treatments lasted for 24 days thereafter. Antitumour activities were estimated by the inhibition of tumour volume, which was measured with a caliper at two-day intervals over the treatment period. Each point represents mean tumour volume calculated from 4 animals per experimental group. […] Treatments lasted for 24 days thereafter. Antitumour activities were estimated by the inhibition of tumour volume, which was measured with a caliper at two-day intervals over the treatment period. Each point represents mean tumour volume calculated from 4 animals per experimental group. […] Each point represents mean tumour volume calculated from 5 animals per experimental group. […] Antitumour activities were estimated by the inhibition of tumour volume, which was measured with a caliper on four different occasions over 16-day period. Each point represents mean tumour volume calculated from 5 animals per experimental group. […] Antitumour activities were estimated by the inhibition of tumour volume, which was measured with a caliper at two-day intervals over the treatment period. Each point represents mean tumour volume calculated from 5 animals per experimental group. […] Antitumour activities were estimated by the inhibition of tumour volume, which was measured with a caliper at various time intervals over the span of 30 days. Each point represents mean tumour volume calculated from 6 animals per experimental group. […] Antitumour activities were estimated by the inhibition of tumour volume, which was measured with a caliper. […]

[2] = Tissue distribution in the monkey (CE method); assay type: in vivo
Experimental: The toxicokinetics and tissue distribution of SEQ ID NO:1 (and related oligonucleotide metabolites obtained from exonuclease-mediated chain shortening) were determined in rats and monkeys. In addition to investigating the pharmacokinetics and tissue distribution of SEQ ID NO:1, the purpose of the studies was to correlate adverse effects in the animal studies to the concentrations of SEQ ID NO:1 (and metabolites) in tissue and blood. A capillary electrophoresis (CE) method was used to measure the concentrations of SEQ ID NO:1 (and metabolites) in plasma and tissues.
The concentrations of SEQ ID NO:1 (and related n+1, n−1 to n−15 oligonucleotide metabolites) in the following rat and monkey tissues were measured by a validated CE method (Southwest Bio-Labs, Inc.): kidney, liver, spleen, heart, lung, bone marrow (rat), lymph nodes (monkey) and brain tissues. The tissue samples were collected from the designated animals as described in the 21-day toxicity studies: rats, administered bolus intravenous injections of SEQ ID NO:1 every other day at 2, 10, or 50 mg/kg; and monkeys administered SEQ ID NO:1 by continuous intravenous infusion at 2, 10, or 50 mg/kg/day.

[3] = 2 mg/kg/day continuous i.v. infusion, Necropsy Day 22
[4] = 10 mg/kg/day continuous i.v. infusion, Necropsy Day 22
[5] = 50 mg/kg/day continuous i.v. infusion, Necropsy Day 22
[6] = 50 mg/kg/day continuous i.v. infusion, Necropsy Day 43

5′-GGCTAAATCGCTCCACCAAG-3′ (all phosphorothioate, sugars by position and methylation of C not given here) [SEQ ID NO: 1, fully phosphorothioated antisense oligonucleotide that hybridizes to the coding region of R2 mRNA]
Inhibition of tumour weight ([1]; Human Pancreatic Adenocarcinoma): ~65% | Inhibition of tumour growth ([1]; Human Pancreatic Adenocarcinoma, up to 39 days after tumour implantation): Complete inhibition of tumour growth up to 39 | Inhibitory effect on tumour growth (tumour volume, FIG. 19) ([1]; SU.86.86, CD-1 nude mice, 10 mg/kg i.v. every other day, 34 days, two batches): strong inhibitory effects on the growth of human pancreatic carcinoma | Rank order of tissue concentrations [2]: kidney>liver>bone marrow>spleen>heart>lung | Mean Concentration SEQ ID NO: 1, Brain [2, 3]: BDL (below detectable limits (1 μg/g rat; 0.2 μg/g monkey)) | Mean Concentration SEQ ID NO: 1, Heart [2, 3]: BDL (below detectable limits (1 μg/g rat; 0.2 μg/g monkey)) | Mean Concentration SEQ ID NO: 1, Kidney [2, 3]: 176.2 µg/g | Mean Concentration SEQ ID NO: 1, Liver [2, 3]: 137.8 µg/g | Mean Concentration SEQ ID NO: 1, Lung [2, 3]: BDL (below detectable limits (1 μg/g rat; 0.2 μg/g monkey)) | Mean Concentration SEQ ID NO: 1, Lymph node [2, 3]: 2.2 µg/g | Mean Concentration SEQ ID NO: 1, Spleen [2, 3]: 17.8 µg/g | Mean Concentration total metabolites (n + 1 through n − 13), Brain [2, 3]: BDL (below detectable limits (1 μg/g rat; 0.2 μg/g monkey)) | Mean Concentration total metabolites (n + 1 through n − 13), Heart [2, 3]: BDL (below detectable limits (1 μg/g rat; 0.2 μg/g monkey)) | Mean Concentration total metabolites (n + 1 through n − 13), Kidney [2, 3]: 605.8 µg/g | Mean Concentration total metabolites (n + 1 through n − 13), Liver [2, 3]: 425.7 µg/g | Mean Concentration total metabolites (n + 1 through n − 13), Lung [2, 3]: BDL (below detectable limits (1 μg/g rat; 0.2 μg/g monkey)) | Mean Concentration total metabolites (n + 1 through n − 13), Lymph node [2, 3]: 21.0 µg/g | Mean Concentration total metabolites (n + 1 through n − 13), Spleen [2, 3]: 71.4 µg/g | Mean Concentration SEQ ID NO: 1, Brain [2, 4]: BDL (below detectable limits (1 μg/g rat; 0.2 μg/g monkey)) | Mean Concentration SEQ ID NO: 1, Heart [2, 4]: 1.9 µg/g | Mean Concentration SEQ ID NO: 1, Kidney [2, 4]: 246.5 µg/g | Mean Concentration SEQ ID NO: 1, Liver [2, 4]: 129.0 µg/g | Mean Concentration SEQ ID NO: 1, Lung [2, 4]: 1.6 µg/g | Mean Concentration SEQ ID NO: 1, Lymph node [2, 4]: 13.1 µg/g | Mean Concentration SEQ ID NO: 1, Spleen [2, 4]: 82.1 µg/g | Mean Concentration total metabolites (n + 1 through n − 13), Brain [2, 4]: BDL (below detectable limits (1 μg/g rat; 0.2 μg/g monkey)) | Mean Concentration total metabolites (n + 1 through n − 13), Heart [2, 4]: 4.6 µg/g | Mean Concentration total metabolites (n + 1 through n − 13), Kidney [2, 4]: 886.1 µg/g | Mean Concentration total metabolites (n + 1 through n − 13), Liver [2, 4]: 486.2 µg/g | Mean Concentration total metabolites (n + 1 through n − 13), Lung [2, 4]: 4.2 µg/g | Mean Concentration total metabolites (n + 1 through n − 13), Lymph node [2, 4]: 86.2 µg/g | Mean Concentration total metabolites (n + 1 through n − 13), Spleen [2, 4]: 198.3 µg/g | Mean Concentration SEQ ID NO: 1, Brain [2, 5]: BDL (below detectable limits (1 μg/g rat; 0.2 μg/g monkey)) | Mean Concentration SEQ ID NO: 1, Heart [2, 5]: 46.3 µg/g | Mean Concentration SEQ ID NO: 1, Kidney [2, 5]: 1425.2 µg/g | Mean Concentration SEQ ID NO: 1, Liver [2, 5]: 316.6 µg/g | Mean Concentration SEQ ID NO: 1, Lung [2, 5]: 39.2 µg/g | Mean Concentration SEQ ID NO: 1, Lymph node [2, 5]: 253.5 µg/g | Mean Concentration SEQ ID NO: 1, Spleen [2, 5]: 260.6 µg/g | Mean Concentration total metabolites (n + 1 through n − 13), Brain [2, 5]: BDL (below detectable limits (1 μg/g rat; 0.2 μg/g monkey)) | Mean Concentration total metabolites (n + 1 through n − 13), Heart [2, 5]: 113.8 µg/g | Mean Concentration total metabolites (n + 1 through n − 13), Kidney [2, 5]: 3230.8 µg/g | Mean Concentration total metabolites (n + 1 through n − 13), Liver [2, 5]: 806.6 µg/g | Mean Concentration total metabolites (n + 1 through n − 13), Lung [2, 5]: 124.0 µg/g | Mean Concentration total metabolites (n + 1 through n − 13), Lymph node [2, 5]: 801.2 µg/g | Mean Concentration total metabolites (n + 1 through n − 13), Spleen [2, 5]: 1097 µg/g | Mean Concentration SEQ ID NO: 1, Brain [2, 6]: BDL (below detectable limits (1 μg/g rat; 0.2 μg/g monkey)) | Mean Concentration SEQ ID NO: 1, Heart [2, 6]: 0.5 µg/g | Mean Concentration SEQ ID NO: 1, Kidney [2, 6]: 1.6 µg/g | Mean Concentration SEQ ID NO: 1, Liver [2, 6]: 0.9 µg/g | Mean Concentration SEQ ID NO: 1, Lung [2, 6]: BDL (below detectable limits (1 μg/g rat; 0.2 μg/g monkey)) | Mean Concentration SEQ ID NO: 1, Lymph node [2, 6]: 59.9 µg/g | Mean Concentration SEQ ID NO: 1, Spleen [2, 6]: 57.2 µg/g | Mean Concentration total metabolites (n + 1 through n − 13), Brain [2, 6]: BDL (below detectable limits (1 μg/g rat; 0.2 μg/g monkey)) | Mean Concentration total metabolites (n + 1 through n − 13), Heart [2, 6]: 3.5 µg/g | Mean Concentration total metabolites (n + 1 through n − 13), Kidney [2, 6]: 10.5 µg/g | Mean Concentration total metabolites (n + 1 through n − 13), Liver [2, 6]: 2.3 µg/g | Mean Concentration total metabolites (n + 1 through n − 13), Lung [2, 6]: BDL (below detectable limits (1 μg/g rat; 0.2 μg/g monkey)) | Mean Concentration total metabolites (n + 1 through n − 13), Lymph node [2, 6]: 371.3 µg/g | Mean Concentration total metabolites (n + 1 through n − 13), Spleen [2, 6]: 367.8 µg/g | Concentrations in the brain ([2]; lower limit for detection 0.2 μg/g): below the limits of detection

Source: US7968526B2, “Antisense oligonucleotides directed to ribonucleotide reductase R2 and uses thereof in the treatment of cancer” (Lorus Therapeutics Inc., priority 2003, dated 2011)
